Assay [1] has as its target PI3K p110δ/p85α (human) (Homo sapiens (Human), UniProt O00329). As to the kind of experiment: PI3K p110δ/p85α (human), non-radioactive assay (HTRF). It is filed as biochemical. Conditions: read-out: IC50 (PI3Kdelta). (In TR-FRET formats the signal depends on donor and acceptor labels being close together.)
Assay [2] concerns the target purified human recombinant ATM (ataxia telangiectasia mutated), full length (Homo sapiens (Human), UniProt Q13315). As to the kind of experiment: ATM kinase assay - determination of ATM inhibition (IC50 ATM), TR-FRET. It is filed as biochemical. An outline of the steps:
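Full-length enzyme, expressed in a mammalian cell line, pre-incubated 15 min with inhibitor in 25 mM HEPES pH 8.0, 10 mM Mg(CH3COO)2, 1 mM MnCl2, 0,1% BSA, 0,01% Brij 35, 5 mM DTT. Full-length cmyc-p53 (Sf21-expressed) and ATP then added, 30-35 min at 22° C. EDTA stop; p53 S15 phosphorylation read by TR-FRET antibodies.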

In assay [3] the target is PI3K p110β/p85α (human) (Homo sapiens (Human), UniProt P42338). As to the kind of experiment: PI3K p110β/p85α (human), non-radioactive assay (HTRF). It is filed as biochemical. Conditions: read-out: IC50 (PI3Kbeta). An outline of the steps: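 Human p110β/p85α incubated with 10 μM phosphatidylinositol 4,5-bisphosphate and MgATP for 30 min at room temperature, stopped with EDTA plus biotinylated PIP3. HTRF detection used a Eu-anti-GST antibody, GST-GRP1 PH domain and streptavidin-APC, with signal taken as 10000×(Em665nm/Em620nm).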
PI3K p110β/p85α (human), sequence (P42338 whole entry, the tested form may be a part): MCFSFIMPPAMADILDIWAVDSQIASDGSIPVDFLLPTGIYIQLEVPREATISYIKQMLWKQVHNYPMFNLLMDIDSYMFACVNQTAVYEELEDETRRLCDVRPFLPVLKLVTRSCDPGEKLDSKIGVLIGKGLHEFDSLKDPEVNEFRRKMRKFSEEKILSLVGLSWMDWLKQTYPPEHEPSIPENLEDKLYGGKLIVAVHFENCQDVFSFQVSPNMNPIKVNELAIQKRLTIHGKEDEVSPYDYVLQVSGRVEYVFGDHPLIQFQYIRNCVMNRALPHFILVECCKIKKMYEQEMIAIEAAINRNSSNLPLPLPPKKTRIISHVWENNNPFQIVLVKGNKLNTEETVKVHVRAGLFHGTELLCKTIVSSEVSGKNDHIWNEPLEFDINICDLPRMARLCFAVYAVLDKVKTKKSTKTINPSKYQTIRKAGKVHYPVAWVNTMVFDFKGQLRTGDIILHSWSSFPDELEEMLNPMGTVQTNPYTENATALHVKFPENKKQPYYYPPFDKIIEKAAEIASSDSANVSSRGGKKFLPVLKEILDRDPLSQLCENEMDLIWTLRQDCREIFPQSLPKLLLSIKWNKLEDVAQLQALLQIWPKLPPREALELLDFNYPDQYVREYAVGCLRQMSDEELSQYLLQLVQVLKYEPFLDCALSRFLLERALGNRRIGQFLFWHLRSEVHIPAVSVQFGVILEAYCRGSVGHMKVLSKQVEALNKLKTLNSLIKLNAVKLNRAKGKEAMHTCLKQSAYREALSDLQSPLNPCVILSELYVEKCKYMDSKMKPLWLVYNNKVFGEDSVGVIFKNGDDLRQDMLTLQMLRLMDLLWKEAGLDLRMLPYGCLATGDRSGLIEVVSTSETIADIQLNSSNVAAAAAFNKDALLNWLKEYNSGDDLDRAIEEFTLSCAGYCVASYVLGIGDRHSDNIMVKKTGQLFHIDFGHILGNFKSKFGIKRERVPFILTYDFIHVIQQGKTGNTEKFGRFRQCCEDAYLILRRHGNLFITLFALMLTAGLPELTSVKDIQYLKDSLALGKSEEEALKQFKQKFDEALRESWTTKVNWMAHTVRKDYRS
PI3K p110β/p85α (human), sequence (P27986 whole entry partner, the tested form may be a part): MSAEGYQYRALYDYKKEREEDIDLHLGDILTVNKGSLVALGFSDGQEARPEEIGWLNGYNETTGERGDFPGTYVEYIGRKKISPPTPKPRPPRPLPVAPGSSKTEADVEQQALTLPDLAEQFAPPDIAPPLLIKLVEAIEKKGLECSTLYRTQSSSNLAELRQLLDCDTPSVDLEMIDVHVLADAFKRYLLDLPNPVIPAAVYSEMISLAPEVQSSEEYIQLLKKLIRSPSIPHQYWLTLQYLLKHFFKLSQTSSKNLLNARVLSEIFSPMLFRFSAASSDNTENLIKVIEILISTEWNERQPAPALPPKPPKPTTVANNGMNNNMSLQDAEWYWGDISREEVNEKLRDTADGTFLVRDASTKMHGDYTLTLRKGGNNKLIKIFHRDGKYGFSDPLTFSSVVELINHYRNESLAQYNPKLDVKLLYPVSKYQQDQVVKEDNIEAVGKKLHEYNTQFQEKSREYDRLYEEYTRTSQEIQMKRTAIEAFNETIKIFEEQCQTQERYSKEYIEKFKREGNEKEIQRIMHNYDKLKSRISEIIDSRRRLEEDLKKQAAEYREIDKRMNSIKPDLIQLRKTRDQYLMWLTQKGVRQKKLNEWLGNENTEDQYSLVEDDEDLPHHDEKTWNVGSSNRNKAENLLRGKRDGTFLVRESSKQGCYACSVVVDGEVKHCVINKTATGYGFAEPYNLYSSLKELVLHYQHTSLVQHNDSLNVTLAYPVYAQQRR

Assay [4] concerns the target mTOR (human) (Homo sapiens (Human), UniProt P42345). As to the kind of experiment: mTOR (human) kinase assay, [γ-33P-ATP] filter assay. It is filed as biochemical. An outline of the steps:
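Radiometric filter assay: enzyme in 50 mM HEPES pH 7.5, 1 mM EGTA, 0.01% Tween 20, 3 mM MnCl2, 2 mg/ml substrate with [γ-33P-ATP], started with MgATP. Incubated 40 min at room temperature, stopped with 3% phosphoric acid; incorporation measured on P30 filtermat by scintillation counting.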

Assay [5] concerns the target PI3K (p120γ) (human) (Homo sapiens (Human), UniProt P48736). As to the kind of experiment: PI3K (p120γ) (human), non-radioactive assay (HTRF). It is filed as biochemical. To be noted: read-out: IC50 (PI3Kgamma). An outline of the steps:
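Enzyme was run with 10 μM phosphatidylinositol 4,5-bisphosphate, starting the reaction with MgATP at an unspecified level, for 30 min at room temperature. The stop used EDTA plus biotinylated PIP3, and detection used Eu-anti-GST, GST-GRP1 PH domain and streptavidin-APC. Signal was taken as HTRF = 10000×(Em665nm/Em620nm).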

For assay [6], the system named is phosphorylation of CHK2 (phospho-Thr68) in HCT116 cells. As to the kind of experiment: Cellular pCHK2 assay: bleomycin-induced phosphorylation of CHK2 (phospho-Thr68), immunofluorescence high-content analysis. It is filed as cell-based, human. To be noted: Homo sapiens, HCT-116, 4 h, read-out: IC50 (pCHK2). An outline of the steps:
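HCT116 cells in DMEM with 10% FCS, incubated overnight at 37° C, then given compounds (1 nM to 30 μM, 0.5% DMSO) together with 10 μM bleomycin. Phospho-Thr68 CHK2 immunostained and imaged by high-content imager; nuclei with pCHK2 above background counted, cell count from propidium iodide DNA stain.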

For assay [7], the target named is PI3K p110α/p85α (human) (Homo sapiens (Human), UniProt P42336). Description: PI3K p110α/p85α (human), non-radioactive assay (HTRF). Conditions: read-out: IC50 (PI3Kalpha). It is filed as biochemical.
PI3K p110α/p85α (human), sequence (P42336 whole entry): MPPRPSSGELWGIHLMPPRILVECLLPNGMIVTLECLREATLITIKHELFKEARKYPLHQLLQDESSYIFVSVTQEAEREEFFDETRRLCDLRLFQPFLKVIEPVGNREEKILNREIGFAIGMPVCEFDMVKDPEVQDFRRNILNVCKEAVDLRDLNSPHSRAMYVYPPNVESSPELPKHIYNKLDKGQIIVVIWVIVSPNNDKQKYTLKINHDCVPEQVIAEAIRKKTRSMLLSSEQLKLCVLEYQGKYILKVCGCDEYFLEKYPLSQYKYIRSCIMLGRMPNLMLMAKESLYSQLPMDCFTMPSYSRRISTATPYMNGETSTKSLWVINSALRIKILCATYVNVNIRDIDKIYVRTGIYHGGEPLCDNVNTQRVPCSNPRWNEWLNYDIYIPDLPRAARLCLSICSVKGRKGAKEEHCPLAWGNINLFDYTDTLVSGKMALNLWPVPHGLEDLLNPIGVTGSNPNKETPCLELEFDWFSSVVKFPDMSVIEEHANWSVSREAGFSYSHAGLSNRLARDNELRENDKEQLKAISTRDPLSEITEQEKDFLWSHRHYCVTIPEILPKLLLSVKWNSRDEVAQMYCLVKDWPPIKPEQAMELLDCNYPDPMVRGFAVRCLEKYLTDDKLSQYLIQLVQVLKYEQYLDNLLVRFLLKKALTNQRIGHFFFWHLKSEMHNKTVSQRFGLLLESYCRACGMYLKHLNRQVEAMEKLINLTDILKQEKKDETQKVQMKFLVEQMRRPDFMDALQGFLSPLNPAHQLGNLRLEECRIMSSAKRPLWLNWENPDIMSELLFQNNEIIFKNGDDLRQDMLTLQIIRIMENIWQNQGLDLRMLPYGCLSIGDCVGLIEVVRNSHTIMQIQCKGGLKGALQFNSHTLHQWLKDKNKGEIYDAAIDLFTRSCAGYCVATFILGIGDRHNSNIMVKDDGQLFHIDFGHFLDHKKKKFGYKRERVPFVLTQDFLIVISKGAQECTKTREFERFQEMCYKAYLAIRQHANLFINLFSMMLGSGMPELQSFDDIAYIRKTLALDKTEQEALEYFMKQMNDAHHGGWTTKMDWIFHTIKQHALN
PI3K p110α/p85α (human), sequence (P27986 whole entry partner): as the sequence (P27986 whole entry partner, the tested form may be a part) above

Read-outs that look alike come from different tables or passages of the source.

PI3K p110δ/p85α (human), sequence (O00329 whole entry): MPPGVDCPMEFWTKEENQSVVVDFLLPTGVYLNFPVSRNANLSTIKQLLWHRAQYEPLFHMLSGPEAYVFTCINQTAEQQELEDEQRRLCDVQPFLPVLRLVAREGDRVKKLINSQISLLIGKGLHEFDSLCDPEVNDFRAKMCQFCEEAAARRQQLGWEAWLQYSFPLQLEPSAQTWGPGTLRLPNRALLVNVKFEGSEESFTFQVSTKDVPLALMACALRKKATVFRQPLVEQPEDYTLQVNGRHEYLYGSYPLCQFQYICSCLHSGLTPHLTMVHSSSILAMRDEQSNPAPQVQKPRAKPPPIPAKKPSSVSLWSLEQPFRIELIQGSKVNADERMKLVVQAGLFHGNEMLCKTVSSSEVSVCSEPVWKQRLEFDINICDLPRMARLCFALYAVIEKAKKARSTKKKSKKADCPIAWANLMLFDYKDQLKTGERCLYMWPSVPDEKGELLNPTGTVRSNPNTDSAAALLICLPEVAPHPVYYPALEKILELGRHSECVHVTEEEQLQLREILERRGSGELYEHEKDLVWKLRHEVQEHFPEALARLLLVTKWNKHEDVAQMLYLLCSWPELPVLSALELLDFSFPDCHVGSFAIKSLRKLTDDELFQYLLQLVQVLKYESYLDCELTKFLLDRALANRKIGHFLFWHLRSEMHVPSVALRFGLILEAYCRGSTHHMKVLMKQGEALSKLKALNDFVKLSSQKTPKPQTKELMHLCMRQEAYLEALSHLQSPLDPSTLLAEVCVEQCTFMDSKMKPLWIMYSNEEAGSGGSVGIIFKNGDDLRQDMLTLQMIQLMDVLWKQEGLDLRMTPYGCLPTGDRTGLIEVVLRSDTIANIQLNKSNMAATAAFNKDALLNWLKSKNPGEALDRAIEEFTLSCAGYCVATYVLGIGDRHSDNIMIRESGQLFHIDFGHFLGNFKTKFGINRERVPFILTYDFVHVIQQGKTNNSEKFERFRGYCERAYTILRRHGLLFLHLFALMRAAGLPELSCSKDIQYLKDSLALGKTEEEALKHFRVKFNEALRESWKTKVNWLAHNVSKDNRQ
PI3K p110δ/p85α (human), sequence (P27986 whole entry partner): as the sequence (P27986 whole entry partner, the tested form may be a part) above
PI3K (p120γ) (human), sequence (P48736 whole entry, the tested form may be a part): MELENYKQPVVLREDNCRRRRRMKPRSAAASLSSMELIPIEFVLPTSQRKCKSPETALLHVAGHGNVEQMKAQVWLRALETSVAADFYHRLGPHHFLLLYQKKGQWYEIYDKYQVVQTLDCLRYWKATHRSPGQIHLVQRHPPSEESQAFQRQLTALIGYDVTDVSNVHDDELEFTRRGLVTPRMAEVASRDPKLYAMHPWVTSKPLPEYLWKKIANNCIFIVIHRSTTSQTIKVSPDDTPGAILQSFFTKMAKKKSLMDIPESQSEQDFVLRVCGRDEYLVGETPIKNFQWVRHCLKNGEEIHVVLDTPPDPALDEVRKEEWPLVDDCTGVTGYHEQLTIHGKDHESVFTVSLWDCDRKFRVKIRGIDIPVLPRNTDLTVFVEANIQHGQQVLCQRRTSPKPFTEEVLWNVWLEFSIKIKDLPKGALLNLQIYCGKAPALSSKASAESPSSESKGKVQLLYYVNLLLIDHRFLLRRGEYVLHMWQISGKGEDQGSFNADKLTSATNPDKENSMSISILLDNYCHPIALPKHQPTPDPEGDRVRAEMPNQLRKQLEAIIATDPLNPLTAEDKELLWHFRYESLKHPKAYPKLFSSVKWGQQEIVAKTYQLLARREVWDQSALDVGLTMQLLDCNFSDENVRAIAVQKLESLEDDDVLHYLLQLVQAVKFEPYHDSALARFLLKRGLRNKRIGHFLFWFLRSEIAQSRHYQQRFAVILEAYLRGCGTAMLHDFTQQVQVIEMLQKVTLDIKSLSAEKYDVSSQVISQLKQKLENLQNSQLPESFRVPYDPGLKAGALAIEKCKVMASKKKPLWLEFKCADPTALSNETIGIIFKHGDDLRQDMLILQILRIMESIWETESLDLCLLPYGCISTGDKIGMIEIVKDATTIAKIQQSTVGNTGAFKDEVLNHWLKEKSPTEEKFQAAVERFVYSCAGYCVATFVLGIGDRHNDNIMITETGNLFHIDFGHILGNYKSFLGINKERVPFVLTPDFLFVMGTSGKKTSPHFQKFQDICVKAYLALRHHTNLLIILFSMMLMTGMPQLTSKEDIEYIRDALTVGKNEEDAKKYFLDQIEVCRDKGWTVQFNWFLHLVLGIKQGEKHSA

As to `CCn1cc(-c2cc3c(cc2OC)ncc2c3n(-c3ccncc3F)c(=O)n2C)cn1` [Compound Example 33, 8-(1-Ethyl-1H-pyrazol-4-yl)-1-(3-fluoropyridin-4-yl)-7-methoxy-3-methyl-1,3-dihydroimidazo[4,5-c] quinolin-2-one], the IC50 in assay [1] was more than 30 µM; in assay [2], less than 0.001 µM; in assay [2] (10 μM ATP, substrate p53), less than 0.001 µM; in assay [3], more than 30 µM; in assay [4], more than 30 µM; in assay [5] it was more than 30 µM. Further, the IC50 was less than 0.2 µM in assay [6] and more than 30 µM in assay [7].
For the molecule `CCn1cc(-c2cc3c(cc2OC)ncc2c3n(-c3ccncc3C)c(=O)n2C)cn1` [Compound Example 34, 8-(1-Ethyl-1H-pyrazol-4-yl)-7-methoxy-3-methyl-1-(3-methylpyridin-4-yl)-1,3-dihydroimidazo[4,5-c] quinolin-2-one], the IC50 in assay [1] is more than 30 µM; in assay [2], less than 0.01 µM; in assay [2] (10 μM ATP, substrate p53), less than 0.01 µM; in assay [3] it was more than 30 µM; in assay [4], more than 30 µM; in assay [5], more than 30 µM. In addition, the IC50 is less than 0.2 µM in assay [6] and more than 30 µM in assay [7].
For the molecule `COc1cc2ncc3c(c2cc1-c1cnn(C)c1)n(-c1ccncc1F)c(=O)n3C` [Compound Example 35, 1-(3-Fluoropyridin-4-yl)-7-methoxy-3-methyl-8-(1-methyl-1H-pyrazol-4-yl)-1,3-dihydroimidazo[4,5-c] quinolin-2-one], the IC50 in assay [1] is more than 30 µM; in assay [2], less than 0.01 µM; in assay [2] (10 μM ATP, substrate p53), less than 0.01 µM; in assay [3], more than 30 µM; in assay [4], more than 30 µM; in assay [5] it was more than 30 µM. The IC50 in assay [6] is less than 0.2 µM; in assay [7] it was more than 30 µM.
For `COc1cc2ncc3c(c2cc1-c1cnn(C)c1)n(-c1ncc(F)cn1)c(=O)n3C` [Compound Example 36, 1-(5-Fluoropyrimidin-2-yl)-7-methoxy-3-methyl-8-(1-methyl-1H-pyrazol-4-yl)-1,3-dihydroimidazo[4,5-c] quinolin-2-one], the IC50 in assay [1] was more than 30 µM; in assay [2], less than 0.001 µM; in assay [2] (10 μM ATP, substrate p53), less than 0.01 µM; in assay [3] it was more than 30 µM; in assay [4], more than 30 µM; in assay [5], more than 30 µM. Moreover, the figures for the IC50 in assay [6] and in assay [7] were less than 0.2 µM and more than 30 µM, respectively.
Turning to `COc1cc2ncc3c(c2cc1-c1cn[nH]c1)n(-c1cnn(C2CCOCC2)c1)c(=O)n3C` [Compound Example 37, 7-Methoxy-3-methyl-8-(1H-pyrazol-4-yl)-1-[1-(tetrahydropyran-4-yl)-1H-pyrazol-4-yl]-1,3-dihydro-imidazo[4,5-c] quinolin-2-one], the IC50 was more than 30 µM in assay [1]; less than 0.01 µM in assay [2]; less than 0.01 µM in assay [2] (10 μM ATP, substrate p53); more than 30 µM in assay [3]; more than 10 µM in assay [4]; more than 30 µM in assay [5]. Also, the IC50 in assay [6] is less than 0.2 µM; in assay [7], more than 30 µM.
`CCn1cc(-c2cc3c(cc2OC)ncc2c3n(-c3c(C)cncc3F)c(=O)n2C)cn1` [Compound Example 38, 8-(1-Ethyl-1H-pyrazol-4-yl)-1-(3-fluoro-5-methylpyridin-4-yl)-7-methoxy-3-methyl-1,3-dihydroimidazo[4,5-c] quinolin-2-one]: the IC50 in assay [1] is more than 30 µM; in assay [2], less than 0.001 µM; in assay [2] (10 μM ATP, substrate p53), less than 0.001 µM; in assay [3] it was more than 30 µM; in assay [4], more than 30 µM; in assay [5], more than 30 µM. Besides, the IC50 was 0.2 to 1 µM in assay [6] and more than 30 µM in assay [7].

The values are drawn from US10457677B2 (priority 2015, dated 2019).
